“Also recorded” adds a separate entry of the source.
Experiments:
RARγ-ERcassette = experiment: Transactivation, chimerical receptor RARγ-ERcassette (HeLa); assay type: cell-based; details: 10^-6 M; TTNPB 10^-8 M = 100
From the text: (§1) The HeLa cells are co-transfected by a plasmid which codes for a retinoic receptor in which the C domain of bonding to the DNA is substituted by that of the receptor to RE oestrogens, and a plasmid which places the expression of the luciferase under the control of an ERE (Element of Response to Oestrogens). The expressed chimerical receptors are designated as RARα-ERcassette, RARβ-ERcassette, RARγ-ERcassette and RXRα-ERcassette. The A, B, D, E and F regions of the natural receptor are preserved as well as the transcriptional co-operation between the activation domains AF-1 and AF-2. These transitory transfection experiments follow the method of co-precipitation to calcium phosphate. The HeLa cells are co-transfected by […] of plasmid coding for the chimerical receptor, […] of reporter plasmid and […] of expression vector CMV-β-galactosidase used as an internal control of transfection. 24 hours after the transfection, the cells are incubated for 16 hours with the different effectors.
(§2) In this type of chimerical receptor, the C domain of bonding to the DNA of RAR is substituted by that of the receptor to the RE oestrogens. The protein obtained is close to the natural RAR receptor and preserves the transcriptional properties of the AF-1 and AF-2 domains. It modulates the transcription by means of an ERE. This RAR-ERcassette model allows one to observe a transcriptional response to a more physiological ligand.

[1] = test system: human mammary tumoral lineage T-47D; experiment: Clonogenic test (soft agar), growth of cellular colonies; assay type: cell-based; details: T-47D; for activity at 0.01 µM / activity at 0.001 µM / activity at 0.0001 µM: 504 h, 21 days, control = 100%, read-out: mean number of cellular colonies in relation to control; for activity at 0.001 µM: 10^-9 M; for activity at 0.0001 µM: 10^-10 M; for effect on growth of cellular colonies (in words): soft agar
From the text: The human tumour stem cells are the clonogenic cells which are the origin of the neoplasic cells which constitute a given tumour. These tumour stem cells are responsible for the recidivism process observable after surgical resection of the primary tumours and are also responsible for the formation of metastases. […] At the level of a tumour or of a tumoral cellular lineage, these clonogenic stem cells distinguish themselves from other clonogenic cells of the tumour or of the neoplasic cellular lineage being considered, by the fact that they preserve their ability to proliferate in the absence of any solid support.
This technique is suitable for the culturing in vitro of most of the tumours and tumoral cellular lineages of various histological types. In the context of this test, the neoplastic cells are cultured on a semi-solid culture medium "soft agar" made up of a mixture of agar and agarose. On this selective support, only tumoral stem cells survive and proliferate. […] The morphological characteristics and the growth of the cellular colonies are also a function of the histological type of the tumours being considered.
These culture conditions are also called "anchorage-independent" conditions.
The base medium "MEM 25 MM HEPES" (Minimum Essential Medium, Life Technologies, Belgium) contains Eagle salts but no L-glutamine. This medium is well suited to the growth of a range of varied diploid cells or primary mammal cells. To this medium is then added:
The tumoral cells are maintained in culture in 25 cm^2 falcon dishes (Life Technologies, Belgium). They are then trypsinised and individualised. Their rate of viability is determined by coloration with trypan blue (Sigma, Belgium). It must be greater than 90%. In the case where this condition is kept to, a cellular suspension at the desired concentration is prepared in a solution of agar at 0. 3%. The cells are then seeded between two layers of agar (Sigma, Belgium) and in 35 mm Petri dishes (Life Technologies, Belgium). The base layer is made up of a 0.5% solution of agar and the top layer is made up of a 0.3% solution of agar. The cupules are then positioned and held in an incubator at 37° C. and 5% of CO2. […] After treatment, the cupules are kept in the incubator for 21 days. It is advisable to examine, during the course of the experiment, the appearance and the increase of the cellular colonies. If after 10 days, no colony appears or is developing, the experiment must be repeated. In the contrary case, on the 21st day, 100 μl of an MTT solution (3-(4,5-dimethylthiazol-2-yl)-2,5 diphenyl tetrazolium bromide; Sigma, Belgium) dissolved in the RPMI culture medium (Roswell park Memorial Institute, Life Technologies, Belgium), at the concentration of 1 mg/ml are deposited on the top layer of the group of cupules. The cells are kept in contact with this solution for a minimum of 3 hours at 37° C.
Using an inverted microscope at low magnification, the number of clones whose surface area is greater thar. 100 μm^2 is determined for the group of cupules representing all the different experimental conditions. Then, for each of these experimental conditions, the mean number of cellular colonies±the standard error on the mean (ESM) is calculated.
The mean number of cellular colonies determined for each experimental condition is expressed as a percentage in relation to the control condition made equal to 100%.

[2] = test system: response element RARE of RARβ gene, endogenic retinoic receptors, HRLN lineage; experiment: HRLN transactivation (RARE-luciferase, stably transfected HeLa); assay type: cell-based; details: Homo sapiens, HeLa; for EC50: concentrations from 1 nM to 1 μM; for Emax: read-out: HRLN transactivation, E max
Method: (§3) MCF-7 cells and HeLa are cultivated in DMFM with phenol red to which 5% foetal calf serum is added. The T47-D cells are cultivated in RPMI to which 10% foetal calf serum is added. The experimental tests are carried out in DMEM without phenol red to which foetal calf serum treated with dextran carbon is added at 3%. […] The experiments using the different retinoids are carried out sheltered from the light so as to avoid any isomerisation.
(§4) Certain properties of the retinoids have been determined using more developed cellular models. These models consist of cellular lineages transfected in a stable fashion by recombinant plasmids which place the expression of the gene of the luciferase under the control of different nuclear response elements. […] The tests carried out in duplicate are described below for each of these models.
The cellular lineages HRLN and HRL+N allow one to study the activation of an RARE by endogenic receptors using ligands at physiological concentrations. These lineages derive from HeLa cells transfected in a stable fashion by a reporter gene which places the expression of the gene of the luciferase under the control of a nuclear response element RARE (RARE3 -tk-Luc). The HeLa cells express all the known receptors of the retinoic acid (RARα,β,γ and RXRα,β,γ) with a predominance of RARα and RXRα. The response element RARE used for the HRLN cells corresponds to the sequence of the natural gene of the RARβ receptor (GGTTCAnnnnnAGTTCA). The HRL+N cells comprise the sequence GAGTGAnnnnnCGGTGA.
This lineage comprises the response element RARE of the natural gene of the RARβ receptor which controls the expression of the gene of the luciferase.

RARβ-ERcassette = experiment: Transactivation, chimerical receptor RARβ-ERcassette (HeLa); assay type: cell-based; details: 10^-6 M; TTNPB 10^-8 M = 100
From the text: as §1, §2

[3] = test system: ERE-βGlob-Luc, MELN lineage (MCF-7); experiment: Anti-oestrogenic effect, MELN lineage activated by estradiol; assay type: cell-based, human; details: for inhibition / inhibition at 0.1 µM / inhibition at 0.01 µM: Homo sapiens, MCF7, cells activated by 10^-9 M estradiol; for inhibition: 10^-6 M; for inhibition at 0.1 µM: 10^-7 M; for inhibition at 0.1 µM / inhibition at 0.01 µM: read-out: anti-oestrogenic effect, inhibition; for inhibition at 0.01 µM: 10^-8 M
From the text: as §4
MCF-7 cells express RARα,γ and RXRα. The transfection of MCF-7 cells by an oestrogen-dependent gene (ERE-βGlob-Luc) has permitted the establishment of the MELN cellular lineage, used to determine the anti-oestrogenic activity of the retinoids. These cells contain the gene of the luciferase under the transcriptional control of the promoter of the βGlobine and of the response element ERE isolated from the gene of chicken vitelogenine A2. The experiments are carried out with MELN cells activated by 10^-9 M estradiol. The level of base activity of the MELN cells is obtained with the anti-oestrogen 1 μM 4-OH-tamoxifen (hydroxytamoxifen).
The effect of the products tested on the cells activated by 10^-9 M estradiol is expressed as a percentage, the level of base activity being deducted.

RARα-ERcassette = experiment: Transactivation, chimerical receptor RARα-ERcassette (HeLa); assay type: cell-based; details: 10^-6 M; TTNPB 10^-8 M = 100
From the text: as §1, §2

T-47D cells = experiment: Effect on oestrogen-induced proliferation of T-47D cells; assay type: cell-based, human; details: estradiol 10^-9 M
Method: as §3
So as to test the anti-proliferation effect of the retinoids, growth experiments under oestrogenic conditions were carried out on cells MCF-7 and T-47D. These are the human oestrogen-dependent mammary cancer cells which express the receptor to RE oestrogens. The effect of the molecules is evaluated after 7 days of culture in oestrogenic conditions (estradiol 10^-9 M) by dosing the cellular DNA. The cells are distributed in 24 well plates at a density of 2×10^4 cells per well. The tests with the different retinoids are carried out in triplicate and the culture medium is changed after 4 days of growth.

RAR and RXR receptors = experiment: RAR/RXR activity profile drawn from the models; assay type: cell-based
From the text: The reference molecules have allowed one to show the effectiveness and the complementary nature of the different models used and lead to the following conclusions: chimerical constructions GAL-RAR and RAR-ERcassette allow the determination of the RAR agonist profile of molecules, but also an RXR agonist activity with RAR-ERcassette, the HRLN lineage mainly conveys the activity of a compound mediated by endogenic RARα, the HRL+N lineage also provides evidence of an RXR agonist activity of the retinoids, the anti-oestrogenic effect of the retinoids (oestrogen-induced cellular proliferation and MELN lineage) is mediated by RARα, the anti-AP-1 effect is mediated in the MCF-7 cells (MTLN lineage) by RARα, RARγ and RXRα, and an additive effect exists between the RAR and RXR routes.

EC50 [2]	RAR/RXR activity profile (in words) (RAR and RXR receptors)	SMILES	RAR-ERcassette RARγ transactivation (RARγ-ERcassette)	activity at 0.01 µM ([1]; Homo sapiens, T47D, 10^-8 M)	activity at 0.001 µM ([1]; Homo sapiens, T47D)	activity at 0.0001 µM ([1]; Homo sapiens, T47D)	inhibition at 0.01 µM ([1]; Homo sapiens, T47D, 10^-8 M, read-out: inhibition of colony growth)	Emax [2]	RAR-ERcassette RARβ transactivation (RARβ-ERcassette)	inhibition [3]	inhibition at 0.1 µM [3]	inhibition at 0.01 µM [3]	RAR-ERcassette RARα transactivation (RARα-ERcassette)	effect on oestrogen-induced growth, T-47D (in words) (T-47D cells)	anti-oestrogenic effect (in words) ([3]; estradiol-activated MELN cells)	inhibition at 1 µM (T-47D cells; Homo sapiens, T47D, 168 h, 1 μM (10^-6 M), 7 days, read-out: percentage inhibition of growth, T-47D)	effect on growth of cellular colonies (in words) [1]
21.4 ± 5.6 nM	–	C/C(=C\c1ccc2c(c1)C(C)(C)CCC2(C)C)c1ccc(C(=O)O)nc1 [CB12273, (E) 5-[1-(5,6,7,8-tetrahydro-5,5,8,8-tetramethyl-2-naphthalenyl)-2-propenyl]pyridinyl-2-carboxylic acid]	106%	71.2 ± 2.9%	93.9 ± 3.3%	92.9 ± 21.7%	28.8%	106%	123%	21 to 41%	7 to 16%	0%	90%	–	–	–	–
55.8 ± 70.1 nM	–	C/C(=C\c1ccc2c(c1)C(C)(C)CCC2(C)C)c1cc(C(=O)O)no1 [CB57201]	84%	64.8 ± 1.2%	58.9 ± 11%	75.2 ± 12.2%	–	70%	132%	23 to 41%	1 to 9%	0%	73%	–	–	–	inhibit the growth of the cellular colonies; also recorded: significantly inhibit the growth of the colonies

Further lines, the compound ahead of its results:

SMILES	EC50 [2]	RAR/RXR activity profile (in words) (RAR and RXR receptors)	RAR-ERcassette RARγ transactivation (RARγ-ERcassette)	activity at 0.01 µM ([1]; Homo sapiens, T47D, 10^-8 M)	activity at 0.001 µM ([1]; Homo sapiens, T47D)	activity at 0.0001 µM ([1]; Homo sapiens, T47D)	inhibition at 0.01 µM ([1]; Homo sapiens, T47D, 10^-8 M, read-out: inhibition of colony growth)	Emax [2]	RAR-ERcassette RARβ transactivation (RARβ-ERcassette)	inhibition [3]	inhibition at 0.1 µM [3]	inhibition at 0.01 µM [3]	RAR-ERcassette RARα transactivation (RARα-ERcassette)	effect on oestrogen-induced growth, T-47D (in words) (T-47D cells)	anti-oestrogenic effect (in words) ([3]; estradiol-activated MELN cells)	inhibition at 1 µM (T-47D cells; Homo sapiens, T47D, 168 h, 1 μM (10^-6 M), 7 days, read-out: percentage inhibition of growth, T-47D)	effect on growth of cellular colonies (in words) [1]
C/C(=C\c1ccc2c(c1)C(C)(C)CCC2(C)C)c1ccc(C(=O)O)cc1 [CB24159, reference compound]	0.08 ± 0.1 nM	RAR selective	89%	–	–	–	–	100%	117%	22 to 37%	26 to 43%	31 to 43%	113%	inhibits the growth of the T-47D cells in a dose dependent manner with an efficacy greater than that of TTNPB	the most inhibiting of the oestrogenic transcription on the MELN model	–	–
C/C(=C\c1ccc2c(c1)C(C)(C)CCC2(C)C)c1ccc(C(=O)O)s1 [CB38973]	14.9 ± 12.3 nM	–	–	38.6 ± 3.6%	60.1 ± 2%	68.4 ± 8.3%	–	89%	–	30%	–	–	–	–	–	55%	inhibit the growth of the cellular colonies; also recorded: significantly inhibit the growth of the colonies
C/C(=C\c1ccc2c(c1)C(C)(C)CCC2(C)C)c1cc(C(=O)O)cs1 [CB80660]	38.3 ± 9.5 nM	–	–	–	–	–	–	106%	–	18 to 37%	20 to 42%	26%	–	–	–	–	–
